ChEMBL document CHEMBL6074686 (Eur J Med Chem, 2025)
The source made the active and inactive calls. No cut-off for these calls is given here.

Legend:
[1] = system: SK-OV-3; test: Induction of cell cycle arrest in human SK-OV-3 cells assessed as increase in G2/M phase cells incubated for 24 hrs PI staining based flow cytometric analysis; assay type: functional; conditions: dose 2.5-40 nM
[2] = system: MCF7; test: Inhibition of cell migration in human MCF7 cells assessed as wound closure ratio at 1.25 nM incubated for 24 hrs by wound healing assay (reference value: 100%); assay type: functional; set-up: scale not given: the % may be the effect or the level left
[3] = system: SK-OV-3; test: Induction of cell cycle arrest in human SK-OV-3 cells assessed as increase in G2/M phase cells at 5 nM incubated for 24 hrs PI staining based flow cytometric analysis (reference value: 24.6 +/- 2.0%); assay type: functional
[4] = system: SK-OV-3; test: Inhibition of cell migration in human SK-OV-3 cells assessed as reduction in wound closure at 6.25 nM incubated for 24 hrs by wound healing assay (reference value: 21.8 +/- 7.6%); assay type: functional; conditions: SK-OV-3, 24 h, values are per cent of control
[5] = system: MCF7; test: Induction of apoptosis in human MCF7 cells assessed as upregulation of Bax expression at 100 nM incubated for 24 hrs by Western blotting analysis; assay type: functional, cell-based
[6] = target: T1, Tubulin (Homo sapiens) (UniProt P68371+Q9H4B7+P0DPH7+P68366+Q13509+Q71U36+P04350+Q3ZCM7+P07437+P68363+Q9BQE3+Q6PEY2+Q13885+Q9BVA1+Q9BUF5); test: Inhibition of tubulin polymerization (unknown origin) assessed as reduction in optical density at 340 nm; assay type: protein-complex assay; conditions: dose 5-20 µM
[7] = system: SK-OV-3; test: Antitumor activity against human SK-OV-3 cells xenografted in female BALB/c nude mouse assessed as tumor growth inhibition at 10 mg/kg, […] via tail vein once every 2 to 3 days; assay type: functional; conditions: time 2-3 day, read-out: TGI
[8] = system: SK-OV-3; test: Inhibition of cell migration in human SK-OV-3 cells assessed as wound closure ratio at 12.5 nM incubated for 24 hrs by wound healing assay (reference value: 100%); assay type: functional; set-up: scale not given: the % may be the effect or the level left
[9] = system: SK-OV-3; test: Inhibition of cell migration in human SK-OV-3 cells assessed as area of migrated cells at 1.25 nM incubated for 24 hrs by crystal violet staining based inverted microscopic analysis (reference value: 30.1 +/- 1.3 mm^3); assay type: functional
[10] = system: SK-OV-3; test: Inhibition of cell migration in human SK-OV-3 cells assessed as ratio of migrated cells at 1.25 nM incubated for 24 hrs by Transwell assay (reference value: 100 %); assay type: functional; set-up: scale not given: the % may be the effect or the level left
[11] = system: SK-OV-3; test: Inhibition of cell migration in human SK-OV-3 cells assessed as area of migrated cells at 5 nM incubated for 24 hrs by crystal violet staining based inverted microscopic analysis (reference value: 30.1 +/- 1.3 mm^3); assay type: functional
[12] = system: SK-OV-3; test: Antitumor activity against human SK-OV-3 cells xenografted xenografted in female BALB/c nude mouse assessed as downregulation of CD-31 expression level in tumor at 10 mg/kg, […] via tail vein once every 2 to 3 days by immunohistochemistry analysis; assay type: functional, organism-based; conditions: time 2-3 day
[13] = system: SK-OV-3; test: Induction of apoptosis in human SK-OV-3 cells assessed as upregulation of cleaved-PARP expression at 25 to 50 nM incubated for 24 hrs by Western blotting analysis; assay type: functional, cell-based; conditions: dose 25-50 nM
[14] = system: SK-OV-3; test: Antitumor activity against human SK-OV-3 cells assessed as reduction in cell viability incubated for 72 hrs by CCK8 assay; assay type: functional, cell-based; conditions: SK-OV-3, 72 h
[15] = system: MCF7; test: Induction of apoptosis in human MCF7 cells assessed as upregulation of Bcl-2 expression at 100 nM incubated for 24 hrs by Western blotting analysis; assay type: functional, cell-based
[16] = target: T1, Tubulin (Homo sapiens); test: Inhibition of tubulin polymerization (unknown origin) assessed as reduction in optical density at 340 nm at 20 uM relative to control; assay type: protein-complex assay
[17] = system: MCF7; test: Inhibition of cell migration in human MCF7 cells assessed as wound closure ratio at 2.5 nM incubated for 24 hrs by wound healing assay (reference value: 100%); assay type: functional; set-up: scale not given: the % may be the effect or the level left
[18] = system: MCF7; test: Inhibition of cell migration in human MCF7 cells assessed as ratio of migrated cells at 25 nM incubated for 24 hrs by crystal violet staining based inverted microscopic analysis (reference value: 100%); assay type: functional; set-up: scale not given: the % may be the effect or the level left
[19] = system: SK-OV-3; test: Induction of cell cycle arrest in human SK-OV-3 cells assessed as decrease in Cyclin-B1 expression at 100 nM incubated for 24 hrs by Western blotting analysis; assay type: functional, cell-based
[20] = system: SK-OV-3; test: Induction of apoptosis in human SK-OV-3 cells assessed as Bax expression at 25 to 50 nM incubated for 24 hrs by Western blotting analysis; assay type: functional, cell-based; conditions: dose 25-50 nM
[21] = system: SK-OV-3; test: Antitumor activity against human SK-OV-3 cells xenografted xenografted in female BALB/c nude mouse assessed as upregulation of cleaved PARP expression level in tumor at 5 to 10 mg/kg, […] via tail vein once every 2 to 3 days by immunohistochemistry analysis; assay type: functional, organism-based; conditions: dose 5-10 mg/kg, time 2-3 day
[22] = system: SK-OV-3; test: Antitumor activity against human SK-OV-3 cells xenografted xenografted in female BALB/c nude mouse assessed as downregulation of Bcl-2 expression level in tumor at 5 to 10 mg/kg, […] via tail vein once every 2 to 3 days by immunohistochemistry analysis; assay type: functional, organism-based; conditions: dose 5-10 mg/kg, time 2-3 day
[23] = system: SK-OV-3; test: Inhibition of cell migration in human SK-OV-3 cells assessed as reduction in wound closure at 3.125 nM incubated for 24 hrs by wound healing assay (reference value: 21.8 +/- 7.6%); assay type: functional; conditions: SK-OV-3, 24 h, values are per cent of control
[24] = system: MCF7; test: Inhibition of cell migration in human MCF7 cells assessed as wound closure ratio at 5 nM incubated for 24 hrs by wound healing assay (reference value: 100%); assay type: functional; set-up: scale not given: the % may be the effect or the level left
[25] = Toxicity in female BALB/c nude mouse xenografted with human SK-OV-3 cells assessed as effect on physiological status at 15 mg/kg, administered via tail vein for 5 days and measured daily; assay type: organism-based; conditions: in vivo, iv, 120 h, time 5 day
[26] = system: MCF7; test: Inhibition of cell migration in human MCF7 cells assessed as area of migrated cells at 3.125 nM incubated for 24 hrs by crystal violet staining based inverted microscopic analysis (reference value: 18.5 +/- 0.3 mm^3); assay type: functional
[27] = system: SK-OV-3; test: Inhibition of cell migration in human SK-OV-3 cells assessed as area of migrated cells at 20 nM incubated for 24 hrs by crystal violet staining based inverted microscopic analysis (reference value: 30.1 +/- 1.3 mm^3); assay type: functional
[28] = system: MCF7; test: Inhibition of colony formation in human MCF7 cells at 3.125 to 50 nM by crystal violet staining based assay; assay type: functional, cell-based; conditions: dose 3.125-50 nM, time 0-72 hrs
[29] = system: MCF7; test: Inhibition of cell migration in human MCF7 cells assessed as wound closure ratio at 10 nM incubated for 24 hrs by wound healing assay (reference value: 100%); assay type: functional; set-up: scale not given: the % may be the effect or the level left
[30] = system: A549; test: Induction of cell cycle arrest in human A549 cells assessed as downregulation of Cdc-25c expression incubated for 24 hrs by Western blotting analysis; assay type: functional, cell-based; conditions: dose 25-100 nM
[31] = Toxicity in female BALB/c nude mouse xenografted with human SK-OV-3 cells assessed as drug tolerance by measuring body weight loss at 30 mg/kg, administered via tail vein for 5 days and measured daily; assay type: organism-based; conditions: in vivo, iv, 120 h, time 5 day
[32] = Toxicity in female BALB/c nude mouse xenografted with human SK-OV-3 cells assessed as drug tolerance by measuring reduction in water intake at 30 mg/kg, administered via tail vein for 5 days and measured daily; assay type: organism-based; conditions: in vivo, iv, 120 h, time 5 day

CNc1nc(N2CCCc3cc(OC)ccc32)c2cc(F)ccc2n1
Activity [1]: Dose-dependent-effect | Activity [2]: 105.5% | Activity [3]: 29.6% | response, % of control at 0.00625 µM [4]: 18.4% | Activity [5]: Active | inhibition [6]: Dose-dependent-effect | inhibition in vivo at 10 mg/kg [7]: 46.2% | Activity [8]: 65.8% | Activity [9]: 21.7 mm3 | Activity [10]: 72.3% | Activity [11]: 14.7 mm3 | Activity [12]: Active | Activity [13]: Active | IC50 [14]: 0.8 nM | Activity [15]: inactive | inhibition [16]: 100% | Activity [17]: 98.8% | Activity [18]: 13.2% | Activity [19]: Active | Activity [20]: inactive | Activity [21]: Active | Activity [22]: Active | response, % of control at 0.003125 µM [23]: 22.8% | Activity [24]: 97.3% | Activity [25]: Toxic | Activity [26]: 17.5 mm3 | Activity [27]: 3.6 mm3 | inhibition [28]: Time-dependent-effect | Activity [29]: 104.4% | Activity [30]: Dose-dependent-effect | Activity [31]: Toxic | Activity [32]: Toxic
